ChEMBL document CHEMBL1136712, “Oxyguanidines: application to non-peptidic phenyl-based thrombin inhibitors” (Bioorg Med Chem Lett, 2003)

Legend:
[1] = target: Prothrombin (Homo sapiens, UniProt P00734); experiment: Inhibitory activity against alpha-human thrombin
[2] = organism: Canis familiaris; experiment: In vitro metabolic potential in dog liver microsomes; assay type: ADME, Canis lupus familiaris
[3] = target: Plasminogen (Homo sapiens, UniProt P00747); experiment: In vitro inhibitory activity against serine protease Plasmin
Plasminogen, sequence (P00747 97-580 limits assumed): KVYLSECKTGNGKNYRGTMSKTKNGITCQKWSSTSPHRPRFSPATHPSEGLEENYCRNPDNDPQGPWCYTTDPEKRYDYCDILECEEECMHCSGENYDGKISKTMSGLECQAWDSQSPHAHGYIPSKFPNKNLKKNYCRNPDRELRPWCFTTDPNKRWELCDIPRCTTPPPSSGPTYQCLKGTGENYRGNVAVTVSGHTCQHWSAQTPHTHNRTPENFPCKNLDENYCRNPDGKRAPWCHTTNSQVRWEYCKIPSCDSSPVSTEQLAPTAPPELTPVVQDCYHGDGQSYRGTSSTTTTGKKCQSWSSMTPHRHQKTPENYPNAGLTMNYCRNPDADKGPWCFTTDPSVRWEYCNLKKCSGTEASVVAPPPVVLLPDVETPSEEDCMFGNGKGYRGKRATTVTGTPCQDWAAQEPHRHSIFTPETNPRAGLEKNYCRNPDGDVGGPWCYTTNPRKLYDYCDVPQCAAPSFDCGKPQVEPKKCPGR
Plasminogen, sequence (P00747 581-810 limits assumed): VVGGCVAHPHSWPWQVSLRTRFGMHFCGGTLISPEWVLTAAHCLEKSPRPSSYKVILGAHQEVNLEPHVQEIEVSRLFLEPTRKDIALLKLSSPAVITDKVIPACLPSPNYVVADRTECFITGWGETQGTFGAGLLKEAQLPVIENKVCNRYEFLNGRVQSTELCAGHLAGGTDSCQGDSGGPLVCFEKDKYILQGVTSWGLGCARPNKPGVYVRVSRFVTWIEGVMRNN

[4] = Plasma clearance rate by iv administration in dog at a dose of 6 mg/kg; assay type: ADME, organism-based, Canis lupus familiaris; design: dose 6 mg/kg, route intravenous
[5] = target: T1, Neutrophil elastase (Homo sapiens, UniProt P08246); experiment: In vitro inhibitory activity against serine protease Elastase
T1 sequence (P08246 whole entry): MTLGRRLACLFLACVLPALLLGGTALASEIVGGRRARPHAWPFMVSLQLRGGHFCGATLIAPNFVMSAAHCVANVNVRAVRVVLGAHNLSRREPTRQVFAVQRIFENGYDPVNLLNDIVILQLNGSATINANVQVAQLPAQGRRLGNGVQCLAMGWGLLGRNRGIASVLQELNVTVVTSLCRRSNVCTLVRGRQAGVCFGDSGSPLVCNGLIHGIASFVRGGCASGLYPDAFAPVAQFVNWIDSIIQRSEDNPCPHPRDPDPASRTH

[6] = Disassociation constant was determined; assay type: ADME
[7] = organism: Rattus norvegicus; experiment: In vitro metabolic potential in rat liver microsomes; assay type: ADME
[8] = target: Chymotrypsinogen B (Homo sapiens, UniProt P17538); experiment: In vitro inhibitory activity against serine protease Chymotrypsin
Chymotrypsinogen B, sequence (P17538 34-164 limits assumed, other chains not shown): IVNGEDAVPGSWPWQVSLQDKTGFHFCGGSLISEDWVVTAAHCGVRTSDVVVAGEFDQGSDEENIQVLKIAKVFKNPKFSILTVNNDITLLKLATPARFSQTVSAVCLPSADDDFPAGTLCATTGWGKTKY
Chymotrypsinogen B, sequence (P17538 167-263 limits assumed, other chains not shown): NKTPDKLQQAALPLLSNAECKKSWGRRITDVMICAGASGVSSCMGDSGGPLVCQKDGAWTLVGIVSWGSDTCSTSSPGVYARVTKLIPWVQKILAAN

[9] = In vitro metabolic potential in human liver microsomes; assay type: ADME, Microsome
[10] = organism: Mus musculus; experiment: In vitro metabolic potential in mouse liver microsomes; assay type: ADME
[11] = Half life period by iv administration in dog at a dose of 6 mg/kg; assay type: ADME, organism-based, Canis lupus familiaris; design: dose 6 mg/kg, route intravenous; conditions: in vivo
[12] = target: Coagulation factor X (Homo sapiens, UniProt P00742); experiment: In vitro inhibitory activity against serine protease FXa
Coagulation factor X, sequence (P00742 41-179 limits assumed): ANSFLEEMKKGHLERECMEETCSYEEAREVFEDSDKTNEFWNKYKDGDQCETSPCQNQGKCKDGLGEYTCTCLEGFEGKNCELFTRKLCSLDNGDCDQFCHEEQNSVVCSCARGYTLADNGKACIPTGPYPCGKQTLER
Coagulation factor X, sequence (P00742 235-488 limits assumed): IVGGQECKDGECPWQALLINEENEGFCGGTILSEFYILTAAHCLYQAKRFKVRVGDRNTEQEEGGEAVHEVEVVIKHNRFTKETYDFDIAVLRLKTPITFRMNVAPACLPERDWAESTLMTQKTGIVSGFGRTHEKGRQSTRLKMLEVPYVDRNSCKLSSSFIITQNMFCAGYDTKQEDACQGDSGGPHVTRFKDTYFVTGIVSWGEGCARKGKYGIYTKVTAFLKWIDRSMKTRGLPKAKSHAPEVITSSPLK

[13] = target: Serine protease 1 (Homo sapiens, UniProt P07477); experiment: In vitro inhibitory activity against serine protease Trypsin
Serine protease 1, sequence (P07477 whole entry): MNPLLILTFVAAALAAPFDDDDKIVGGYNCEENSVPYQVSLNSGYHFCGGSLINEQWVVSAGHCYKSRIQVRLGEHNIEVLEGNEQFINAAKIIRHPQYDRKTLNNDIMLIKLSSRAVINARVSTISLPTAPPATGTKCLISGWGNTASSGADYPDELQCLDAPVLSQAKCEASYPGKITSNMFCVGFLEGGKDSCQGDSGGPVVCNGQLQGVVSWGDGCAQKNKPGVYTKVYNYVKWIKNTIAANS

[14] = Oral bioavailability in dog; assay type: ADME, organism-based, Canis lupus familiaris; conditions: in vivo
[15] = organism: Homo sapiens; experiment: The apparent permeability coefficient (Papp) was quantitated in the human Caco-2 monolayer assay; assay type: functional

Compound	Ki [1] [nM]	also measured
Cc1cc(OCCCONC(=N)N)cc(OS(=O)(=O)c2ccc3c(c2)S(=O)(=O)CC3)c1	102	–
COc1ccccc1S(=O)(=O)Oc1cc(C)cc(OCCCONC(=N)N)c1	6.7	–
Cc1cc(OCCCON=C(N)N)cc(OS(=O)(=O)c2cccc3c2NCCC3)c1	31	–
Cc1cc(OCCCONC(=N)N)cc(OS(=O)(=O)c2ccc(S(C)(=O)=O)cc2S(C)(=O)=O)c1	749	–
COc1cc(OCCCONC(=N)N)cc(OS(=O)(=O)c2ccccc2S(C)(=O)=O)c1	34.6	–
CCc1cc(OCCCONC(=N)N)cc(OS(=O)(=O)c2ccccc2S(C)(=O)=O)c1	29.7	–
Cc1cc(OCCCONC(=N)N)cc(OS(=O)(=O)c2ccccc2S(C)(=O)=O)c1	–	Microsomal stability [2]: 21.1 pg min-1 (mg of protein)-1; Ki [3]: > 22000 nM; clearance [4]: 6.9 mL/min/kg; Ki [5]: > 22000 nM; pKa [6]: 7.05; Microsomal stability [7]: 69.5 pg min-1 (mg of protein)-1; Ki [8]: > 22000 nM; Microsomal stability [9]: 50.4 pg min-1 (mg of protein)-1; Microsomal stability [10]: 30.8 pg min-1 (mg of protein)-1; half-life [11]: 7.3 h; Ki [12]: > 22000 nM; Ki [13]: > 22000 nM; bioavailability [14]: 95%
Cc1cc(OCCCONC(=N)N)cc(OS(=O)(=O)c2ccccc2C#N)c1	9.9	–
Cc1cc(OCCCON=C(N)N)cc(OS(=O)(=O)c2ccccc2S(C)(=O)=O)c1	–	Papp [15]: 2.4 ×10⁻⁶ cm/s
Cc1cc(OCCCONC(=N)N)cc(OS(=O)(=O)c2ccccc2S(=O)(=O)c2ccccc2)c1	4.8	–
Cc1cc(OCCCON=C(N)N)cc(OS(=O)(=O)c2cccc3cnccc23)c1	13.2	–
Cc1cc(OCCCONC(=N)N)cc(OS(=O)(=O)c2cccc3cccnc23)c1	6.7	–

Further lines, with some results ahead:

Ki [1] [nM]	Compound	also measured
86.6	Cc1cc(OCCCON=C(N)N)cc(OS(=O)(=O)c2ccccc2N)c1	–
364	Cc1cc(OCC(F)(F)CON=C(N)N)cc(OS(=O)(=O)c2ccccc2S(C)(=O)=O)c1	–
39.4	CS(=O)(=O)c1ccccc1S(=O)(=O)Oc1cc(Cl)cc(OCCCON=C(N)N)c1	–
32.4	C=C(CONC(=N)N)COc1cc(C)cc(OS(=O)(=O)c2ccccc2S(C)(=O)=O)c1	–
114	Cc1cc(OCC(F)CON=C(N)N)cc(OS(=O)(=O)c2ccccc2S(C)(=O)=O)c1 (stereo not drawn)	–
49.3	CS(=O)(=O)c1ccccc1S(=O)(=O)Oc1cc(F)cc(OCC2(CON=C(N)N)CC2)c1	–
403	CS(=O)(=O)c1ccccc1S(=O)(=O)Oc1cc(CO)cc(OCC2(CON=C(N)N)CC2)c1	–
204	Cc1cc(OCCCON=C(N)N)cc(OS(=O)(=O)c2cccc(S(C)(=O)=O)c2)c1	–
137	Cc1cc(OCC(O)CON=C(N)N)cc(OS(=O)(=O)c2ccccc2S(C)(=O)=O)c1 (stereo not drawn)	–
